Patent US6352985B1, “Benzimidazole compounds” (Fujisawa Pharmaceutical Co., Ltd., priority 1995, dated 2002)

Tested on: 3T3-L1 cells (pre-adipocytes)
Assay: Stimulatory activity of triglyceride (TG) accumulation in 3T3-L1 cells (pre-adipocytes)
Type: cell-based
Settings: test compound 1 × 10^−5 M with insulin; 1×10^−6 M pioglitazone defined as 100%, insulin (+) without the chemical agent defined as 0%
Method: Stimulatory activity of triglyceride (TG) accumulation in 3T3-L1 cells (pre-adipocytes)
3T3-L1 cells just before a confluent state were prepared in an F75 flask. The medium was removed, and the residue was washed twice with 5 ml of PBS (−). The cells were detached using a solution of EDTA and trypsin. Ten milliliters of the medium were added thereto to form a suspension. This suspension was collected in a 50-milliliter centrifuge tube, and was subjected to centrifugation at 1,000 rpm for 5 minutes. Thus, the cells were precipitated, and the supernatant was removed. The cells were re-suspended in 20 ml of the medium, and the number of cells was counted. The suspension was adjusted such that the concentration of the cells reached 6×10^4 cells/ml, and was inoculated into a 24-well plate in an amount of 1 ml/well. In this state, the incubation was conducted in an incubator at 37° C. in 5% CO2 for 2 days.
A solution of 1-mM dexamethasone and 500-mM IBMX was prepared in DMSO. […]
Four to five days after the addition of the test chemical agent and the insulin solution, the 24-well plate was withdrawn from the incubator. […] Subsequently, the residue was extracted twice with isopropyl alcohol, and TG was measured at a wavelength of 410 nm using a TG-measuring kit (acetyl-acetone method). […]

SMILES	Stimulatory activity of TG accumulation (%)
O=C(NS(=O)(=O)Cc1ccccc1)c1ccc2nc(C3CC3)n(Cc3ccccc3F)c2c1 [6-benzylsulfonylcarbamoyl-2-cyclopropyl-1-(2-fluorobenzyl)benzimidazole]	38.2%

Tested on: db/db mice
Assay: Test for activity of decreasing plasma glucose using db/db mice
Type: in vivo
Settings: female db/db mice, dose 10 mg/kg mixed with powdered chow for 14 days; difference between db/db and +/+ mouse defined as 100%
Method: Test for activity of decreasing plasma glucose using db/db mice
Five-week-old female mice [C57BL/KsJ-dbm db+/db+, C57BL/KsJ-dbm +m/+m (Jackson Laboratory) were purchased, and were kept for 2 to 3 weeks. Then, these mice were used in the test.
A test compound was mixed with a powdered chow (CE-2, made by Nippon Clea) using a mortar. According to the amount of food intake of the mouse, the mixing ratios, 0.1%, 0.03%, and 0.01% corresponded to 100, 30, and 10 mg/kg body weight, respectively. The mixed chow was changed twice a week. The feed amount and the remaining amount were recorded, and the intake was calculated from the difference therebetween.
The female db/db mice were grouped according to the body weight, the plasma glucose and the plasma triglyceride concentrations. Then, the mixture containing the test compound was administered to the mice for 14 days (from 8 to 10 weeks old). […] Plasma glucose, triglyceride, and insulin concentrations were measured on day 0 and day 14 as well as plasma glucose and triglyceride concentrations on day 7. The body weight was measured on day 0, day 7, and day 14. […]
The plasma glucose was measured by a glucose oxidase method (Glucose CII-Test Wako made by Wako Pure Chemical Industries, Ltd.) using from 10 to 15 μl of plasma. The plasma triglyceride concentration was measured by a GPO-p-chlorophenol method (Triglyceride G-Test Wako made by Wako Pure Chemical Industries, Ltd.) or a GPO-DAOS method (Triglyceride E-Test Wako) using from 10 to 15 μl of plasma. […] The plasma insulin concentration was measured by radio immuno assay method (Phadesef Insulin RIA Kit made by Cabi Pharmacia) using 20 μl of plasma (which can be stored at −20° C.).
The difference in the plasma glucose and the plasma triglyceride concentrations betweeen the db/db mouse and the +/+ mouse was defined as 100%, and the rate (%) of decrease in the plasma glucose and the plasma triglyceride concentrations of the group to which the test compound was administered was calculated.

SMILES	Activity of decreasing plasma glucose (%)
CCCCS(=O)(=O)NC(=O)c1ccc2nc(C)n(Cc3ccc(-c4ccccc4)cc3)c2c1 [Compound (172), 1-(biphenyl-4-ylmethyl)-6-(1-butanesulfonylcarbamoyl)-2-methylbenzimidazole]	70-80%

Same assay, conditions: female db/db mice, dose 30 mg/kg mixed with powdered chow for 14 days; difference between db/db and +/+ mouse defined as 100%

SMILES	Activity of decreasing plasma glucose (%)
Cc1nc2ccc(C(=O)NS(=O)(=O)c3ccccc3)cc2n1Cc1ccccc1Cl [Compound (163), 6-benzenesulfonylcarbamoyl-1-(2-chlorobenzyl)-2-methylbenzimidazole]	72%
O=C(NS(=O)(=O)c1ccccc1)c1ccc2nc(C3CC3)n(Cc3ccccc3F)c2c1 [Compound (177), 6-benzenesulfonylcarbamoyl-2-cyclopropyl-1-(2-fluorobenzyl)benzimidazole]	34.5%

Tested on: not given
Assay: not given
Settings: not given

SMILES	melting point
Cc1nc2ccc(C(=O)NS(=O)(=O)c3ccc4ccccc4c3)cc2n1Cc1ccccc1Cl.[Na]	352 to 354.5 °C
CCCc1nc2ccc(C(=O)NS(=O)(=O)c3ccccc3)cc2n1Cc1ccc(-c2ccccc2)cc1.[K]	279 to 282 °C
Cc1nc2ccc(C(=O)NS(=O)(=O)c3ccc(C(C)(C)C)cc3)cc2n1Cc1ccccc1Cl.[Na]	359.5 to 362 °C
Cc1nc2ccc(C(=O)NS(=O)(=O)c3cccc4cccnc34)cc2n1Cc1ccccc1Cl.[Na]	348 to 352 °C (dec.)
O=C(NS(=O)(=O)c1ccccc1)c1ccc2nc(C3CC3)n(Cc3ccc(-c4ccccc4)cc3)c2c1.[K]	220.8 to 224.8 °C
Cc1nc2ccc(C(=O)NS(=O)(=O)C(F)(F)F)cc2n1Cc1ccccc1Cl.Cl	332 to 335 °C (dec.)
Cc1nc2ccc(C(=O)NS(=O)(=O)c3ccc(Cl)cc3)cc2n1Cc1ccccc1Cl.[Na]	360 to 362 °C (dec.)
CC(C)c1nc2ccc(C(=O)NS(=O)(=O)c3ccccc3)cc2n1Cc1ccc(-c2ccccc2)cc1.[K]	310.1 to 312.7 °C

The next lines start with the values.

melting point	SMILES
243.1 to 244.3 °C	Cc1nc2ccc(C=CC(=O)NS(=O)(=O)c3ccccc3)cc2n1Cc1ccccc1Cl [Compound (178), N-benzenesulfonyl-3-[1-(2-chlorobenzyl)-2-methylbenzimidazol-6-yl]acrylamide]
111 to 112.4 °C	CCCCS(=O)(=O)NC(=O)c1ccc2nc(C)n(Cc3ccc(C(=O)c4ccccc4)cc3)c2c1 [Compound (373), 1-[(4-benzoyl)benzyl]-6-(1-butanesulfonylcarbamoyl)-2-methylbenzimidazole]
352.5 to 355 °C	Nc1nc2ccc(C(=O)NS(=O)(=O)c3ccccc3)cc2n1Cc1ccc(-c2ccccc2)cc1 [Compound (231), 2-amino-6-benzenesulfonylcarbamoyl-1-(biphenyl-4-ylmethyl)benzimidazole]
271 to 274 °C	COc1ccc(S(=O)(=O)NC(=O)c2ccc3nc(C)n(Cc4ccccc4Cl)c3c2)cc1 [Compound (217), 1-(2-chlorobenzyl)-6-(4-methoxybenzenesulfonylcarbamoyl)-2-methylbenzimidazole]
288 to 292 °C	Cc1nc2ccc(C(=O)NS(=O)(=O)c3ccc(C(F)(F)F)cc3)cc2n1Cc1ccccc1Cl [Compound (221), 1-(2-chlorobenzyl)-2-methyl-6-[4-(trifluoromethyl)benzenesulfonylcarbamoyl]benzimidazole]
273.5 to 274.3 °C	Cc1nc2ccc(C(=O)NS(=O)(=O)c3ccccc3)cc2n1Cc1ccccc1Cl [Compound (163), 6-benzenesulfonylcarbamoyl-1-(2-chlorobenzyl)-2-methylbenzimidazole]
254.5 to 257.5 °C (dec.)	Cc1nc2ccc(C(=O)NS(=O)(=O)c3cccc(Cl)c3)cc2n1Cc1ccccc1Cl [Compound (209), 6-(3-chlorobenzenesulfonylcarbamoyl)-1-(2-chlorobenzyl)-2-methylbenzimidazole]
266.5 to 267.5 °C	Cc1ccc(C)c(S(=O)(=O)NC(=O)c2ccc3nc(C)n(Cc4ccccc4Cl)c3c2)c1 [Compound (219), 1-(2-chlorobenzyl)-6-(2,5-dimethylbenzenesulfonylcarbamoyl)-2-methylbenzimidazole]
254 to 256 °C	CCCCS(=O)(=O)NC(=O)c1ccc2nc(O)n(Cc3ccc(Cl)cc3Cl)c2c1 [Compound (379), 6-(1-butanesulfonylcarbamoyl)-1-(2,4-dichlorobenzyl)-2-hydroxybenzimidazole]
229.8 to 233 °C	Cc1nc2ccc(CCC(=O)NS(=O)(=O)c3ccccc3)cc2n1Cc1ccccc1Cl [Compound (266), N-benzenesulfonyl-3-[1-(2-chlorobenzyl)-2-methylbenzimidazole-6-yl]propionamide]
330 to 332 °C	Cc1nc2ccc(C(=O)NS(=O)(=O)c3ccc([N+](=O)[O-])cc3)cc2n1Cc1ccccc1Cl [Compound (220), 1-(2-chlorobenzyl)-2-methyl-6-(4-nitrobenzenesulfonylcarbamoyl)benzimidazole]
193 to 196 °C	Cc1nc2ccc(C(=O)NS(=O)(=O)Cc3ccccc3)cc2n1Cc1ccccc1Cl [Compound (218), 1-(2-chlorobenzyl)-2-methyl-6-(α-toluenesulfonylcarbamoyl)benzimidazole]
264 to 267 °C	Cc1nc2ccc(C(=O)NS(=O)(=O)c3ccccc3Cl)cc2n1Cc1ccccc1Cl.N [Compound (222), 6-(2-chlorobenzenesulfonylcarbamoyl)-1-(2-chlorobenzyl)-2-methylbenzimidazole ammonium salt]
225 to 228 °C	CNc1nc2ccc(C(=O)NS(=O)(=O)c3ccccc3)cc2n1Cc1ccc(-c2ccccc2)cc1 [Compound (230), 6-benzenesulfonylcarbamoyl-1-(biphenyl-4-ylmethyl)-2-methylaminobenzimidazole]
